Earlier results as cited in US7767860B2, “Substituted amino alcohols” (Auspex Pharmaceuticals, Inc, priority 2007, dated 2010).

System: Mycobacterium tuberculosis
Conditions: fold more potent; Hausler et al 2001; Stauffer et al 2002

CC[C@@H](CO)NCCN[C@@H](CC)CO [Ethambutol, 2-[2-(1-hydroxybutan-2-ylamino)ethylamino]butan-1-ol]
potency of the (S,S)-enantiomer relative to the (R,R)-enantiomer and the meso-isomer: 200-500 times
